# Reference: the supplement of paper PMC10307832
# Experiments:
# Assay in all cases: relative viability (nuclei count vs DMSO), 5 days (fraction); higher = more cells survive
# RO-3306 + Dasatinib = compound: C1=CC2=C(C=CC(=C2)C=C3C(=O)NC(=NCC4=CC=CS4)S3)N=C1 [RO-3306] + Cc1nc(Nc2ncc(C(=O)Nc3c(C)cccc3Cl)s2)cc(N2CCN(CCO)CC2)n1 [Dasatinib] (partner 0.075 µM)
# Summary of the method: (§1)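 Lung cancer cell lines, seeded in 1536-well plates, were treated the following day by pin tool with a single drug or with five library-drug doses (not always all listed) in √10 steps on top of a fixed anchor-drug dose. Cells were fixed and nuclei stained in one step after 5 days, and nuclei were counted. Relative viability is the nuclei count for treated wells divided by that for vehicle wells, reported as medians of duplicate plates.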
# RO-3306 + Decitabine = compound: C1=CC2=C(C=CC(=C2)C=C3C(=O)NC(=NCC4=CC=CS4)S3)N=C1 [RO-3306] + Nc1ncn([C@H]2C[C@H](O)[C@@H](CO)O2)c(=O)n1 [Decitabine] (partner 2 µM)
# Summary of the method: as §1
# [1] = compound: O=S(=O)(c1ccccc1)N(CC(F)(F)F)c1ccc(C(O)(C(F)(F)F)C(F)(F)F)cc1 + CC1(C)CCC(c2ccc(Cl)cc2)=C(CN2CCN(c3ccc(C(=O)NS(=O)(=O)c4ccc(N[C@H](CCN5CCOCC5)CSc5ccccc5)c(S(=O)(=O)C(F)(F)F)c4)cc3)CC2)C1 [Navitoclax] (partner 0.5 µM)
# Summary of the method: as §1
# [2] = compound: O=S(=O)(c1ccccc1)N(CC(F)(F)F)c1ccc(C(O)(C(F)(F)F)C(F)(F)F)cc1 + CS(=O)(=O)CCNCc1ccc(-c2ccc3ncnc(Nc4ccc(OCc5cccc(F)c5)c(Cl)c4)c3c2)o1 [Lapatinib] (partner 2 µM)
# Summary of the method: as §1
# [3] = compound: O=S(=O)(c1ccccc1)N(CC(F)(F)F)c1ccc(C(O)(C(F)(F)F)C(F)(F)F)cc1 + O=C(CCCCCCC(=O)Nc1ccccc1)NO [Vorinostat] (partner 1 µM)
# Summary of the method: as §1
Cell Line,relative viability (RO-3306 + Dasatinib; first compound 0.01 µM),relative viability (RO-3306 + Dasatinib; first compound 0.03162 µM),relative viability (RO-3306 + Dasatinib; first compound 0.1 µM),relative viability (RO-3306 + Dasatinib; first compound 0.3162 µM),relative viability (RO-3306 + Dasatinib; first compound 1 µM),relative viability (RO-3306 + Decitabine; first compound 0.01 µM),relative viability (RO-3306 + Decitabine; first compound 0.1 µM),relative viability (RO-3306 + Decitabine; first compound 0.3162 µM),relative viability (RO-3306 + Decitabine; first compound 1 µM),relative viability ([1]; first compound 0.8 µM),relative viability ([1]; first compound 2.53 µM),relative viability ([1]; first compound 8 µM),relative viability ([2]; first compound 0.8 µM),relative viability ([2]; first compound 2.53 µM),relative viability ([2]; first compound 8 µM),relative viability ([3]; first compound 0.8 µM),relative viability ([3]; first compound 2.53 µM),relative viability ([3]; first compound 8 µM),relative viability (RO-3306 + Decitabine; first compound 0.03162 µM)
NCI-H23,0.679,0.595,0.932,0.75,0.657,0.338,0.334,0.341,0.301,1.11,0.804,0.817,1.24,1.24,1.14,0.75,0.622,0.725,
NCI-H2405,0.199,0.493,0.173,0.225,0.463,0.703,0.803,0.685,0.727,1.11,1.01,0.896,1.01,0.962,1.15,1.02,0.755,0.913,0.751
HARA,0.362,0.256,0.356,0.306,0.257,0.523,0.58,0.654,0.692,1.21,1.14,0.948,0.642,0.575,0.552,0.507,0.509,0.388,
HCC-44,,,,,,0.951,1.02,0.917,0.956,1.09,1.01,0.933,1.07,1.04,0.998,0.981,0.972,0.953,0.95
CAL-12T,0.394,0.279,0.345,0.372,0.356,,,,,1.18,1.35,0.832,,0.531,0.592,0.672,0.578,0.548,
NCI-H838,0.351,0.254,0.244,0.295,0.273,0.512,0.425,0.466,0.412,1.3,1.25,1.09,1.23,0.947,1.06,0.812,0.737,0.699,0.443
LK-2,0.333,,0.489,0.258,0.283,0.279,0.282,0.301,0.286,0.912,0.778,0.941,1.13,0.82,0.913,0.27,0.247,0.346,0.215
NCI-H358,0.145,0.155,0.169,0.133,0.191,0.204,0.216,0.206,0.182,,,,0.434,0.383,0.417,,0.581,0.541,0.208
SW 1573,0.455,,0.466,0.497,0.429,0.537,0.401,0.507,0.45,1.26,0.874,0.641,1.18,1.2,1.06,0.634,0.722,0.725,0.461
LCLC-103H,0.472,0.478,0.44,0.401,0.385,0.772,0.695,0.768,0.713,,,,,,,0.859,0.746,0.78,0.651
HCC-827,0.221,0.314,0.24,0.317,0.299,0.339,0.345,0.379,0.289,1.02,0.999,0.949,0.231,0.201,0.217,0.874,0.842,0.781,0.316
NCI-H1666,0.794,0.724,0.772,0.795,0.698,0.729,0.736,0.711,0.641,0.756,0.882,0.99,0.725,0.625,0.408,0.712,0.823,0.809,0.75
NCI-H460,0.543,0.435,0.448,0.518,0.385,0.52,0.509,0.645,0.462,1.42,1.01,0.967,,0.834,0.779,0.847,0.673,0.618,0.44
NCI-H2087,1.01,0.541,0.914,0.869,1.04,0.296,0.253,0.251,0.25,1.03,0.942,0.916,0.922,0.988,0.994,0.89,0.509,0.946,0.276
NCI-H2085,0.212,0.221,0.225,0.265,0.237,0.54,0.463,0.539,0.578,1.14,1,1.03,0.759,0.677,0.65,0.785,0.748,0.711,0.506
NCI-H1299,,,,,,,,,,1.06,1,0.983,0.923,0.952,0.879,,,,
ChaGo-K-1,0.63,0.624,0.569,0.622,0.349,0.514,0.521,0.476,0.363,0.978,1.02,1.59,,,,0.885,0.732,0.655,0.508
A-427,0.739,0.565,0.644,0.631,0.551,0.615,0.543,0.572,0.568,1.01,0.886,1.01,1.04,0.919,1.1,0.85,0.803,0.812,0.545
